According to ChEMBL document CHEMBL1821574, “Structure-activity relationships of 4-position diamine quinoline methanols as intermittent preventative treatment (IPT) against Plasmodium falciparum” (J Med Chem, 2011):
In brackets after ≈: the same amount, converted by molar mass.

What was measured:
Plasmodium falciparum [1] = assay: Antimalarial activity against chloroquine, mefloquine and pyrimethamine-resistant Plasmodium falciparum TM91C235 by SYBR Green I-based fluorescence assay; type: functional
[2] = Apparent permeability from apical to basolateral side of dog MDCK cells at 5 uM after 2 hrs by LC/MS/MS analysis; type: ADME, cell-based, Canis lupus familiaris
Plasmodium falciparum [3] = assay: Antimalarial activity against chloroquine-sensitive and mefloquine-resistant Plasmodium falciparum D6 by SYBR Green I-based fluorescence assay; type: functional
Plasmodium falciparum [4] = assay: Antimalarial activity against chloroquine-resistant and mefloquine-sensitive Plasmodium falciparum W2 assessed as inhibition of [3H]hypoxanthine incorporation by liquid scintillation spectrometry; type: functional
Plasmodium falciparum [5] = assay: Antimalarial activity against chloroquine-sensitive and mefloquine-resistant Plasmodium falciparum D6 assessed as inhibition of [3H]hypoxanthine incorporation by liquid scintillation spectrometry; type: functional
Plasmodium falciparum [6] = assay: Antimalarial activity against chloroquine, mefloquine and pyrimethamine-resistant Plasmodium falciparum TM91C235 assessed as inhibition of [3H]hypoxanthine incorporation by liquid scintillation spectrometry; type: functional
Plasmodium falciparum [7] = assay: Antimalarial activity against chloroquine, mefloquine and pyrimethamine-resistant Plasmodium falciparum TM90C2A assessed as inhibition of [3H]hypoxanthine incorporation by liquid scintillation spectrometry; type: functional

Structure (SMILES) | IC90 (Plasmodium falciparum [1]) | Papp A→B at 2 h, 5 µM [2] | IC90 (Plasmodium falciparum [3]) | IC90 (Plasmodium falciparum [4]) | IC90 (Plasmodium falciparum [5]) | IC90 (Plasmodium falciparum [6]) | IC90 (Plasmodium falciparum [7])
OC(CNCCNC1CC1)c1cc(C(F)(F)F)nc2c(C(F)(F)F)cccc12 (stereo not given) | 0.128 mg/L (≈ 0.314 µM) | 28 nm/s | 0.041 mg/L (≈ 0.101 µM) | – | – | – | –
CN(C)CCNCC(O)c1cc(C(F)(F)F)nc2c(C(F)(F)F)cccc12 (stereo not given) | – | – | – | > 0.5 mg/L | > 0.5 mg/L | > 0.5 mg/L | > 0.5 mg/L
OC(CNCCNCc1ccccc1)c1cc(C(F)(F)F)nc2c(C(F)(F)F)cccc12 (stereo not given) | 0.04 mg/L (≈ 0.0874 µM) | 85 nm/s | 0.029 mg/L (≈ 0.0634 µM) | 0.006 mg/L (≈ 0.0131 µM) | 0.025 mg/L (≈ 0.0547 µM) | – | –
CN(C)CC(C)(C)NCC(O)c1cc(C(F)(F)F)nc2c(C(F)(F)F)cccc12 (stereo not given) | – | – | – | 0.03 mg/L (≈ 0.0709 µM) | 0.098 mg/L (≈ 0.231 µM) | 0.142 mg/L (≈ 0.335 µM) | 0.165 mg/L (≈ 0.39 µM)
OC(CNC[C@@]12CCC[C@@H]1CNC2)c1cc(C(F)(F)F)nc2c(C(F)(F)F)cccc12 (stereo not given in full) | – | – | – | 0.885 mg/L (≈ 1.98 µM) | 0.165 mg/L (≈ 0.369 µM) | 0.433 mg/L (≈ 0.968 µM) | 0.358 mg/L (≈ 0.8 µM)
OC(CNCC1CCNC1)c1cc(C(F)(F)F)nc2c(C(F)(F)F)cccc12 (stereo not given) | – | – | – | 2.04 mg/L (≈ 5.01 µM) | 3.1 mg/L (≈ 7.61 µM) | 4.27 mg/L (≈ 10.5 µM) | 4.37 mg/L (≈ 10.7 µM)
CN(CCN)CC(O)c1cc(C(F)(F)F)nc2c(C(F)(F)F)cccc12 (stereo not given) | 0.695 mg/L (≈ 1.82 µM) | 49 nm/s | 0.344 mg/L (≈ 0.902 µM) | – | – | – | –
OC(CNCCNC1CCC1)c1cc(C(F)(F)F)nc2c(C(F)(F)F)cccc12 (stereo not given) | 0.138 mg/L (≈ 0.327 µM) | 85.4 nm/s | 0.081 mg/L (≈ 0.192 µM) | – | – | – | –
CC(C)N(C)CCNCC(O)c1cc(C(F)(F)F)nc2c(C(F)(F)F)cccc12 (stereo not given) | 0.079 mg/L (≈ 0.187 µM) | 90.3 nm/s | 0.044 mg/L (≈ 0.104 µM) | – | – | – | –
CN(CCN(C)CC(O)c1cc(C(F)(F)F)nc2c(C(F)(F)F)cccc12)CC(O)c1cc(C(F)(F)F)nc2c(C(F)(F)F)cccc12 (stereo not given) | 0.375 mg/L (≈ 0.534 µM) | – | 0.329 mg/L (≈ 0.468 µM) | – | – | – | –
CC(CN1CC2CCC1C2)NCC(O)c1cc(C(F)(F)F)nc2c(C(F)(F)F)cccc12 (stereo not given) | 0.051 mg/L (≈ 0.111 µM) | 188 nm/s | 0.029 mg/L (≈ 0.0628 µM) | – | – | – | –
CC1C(NCC(O)c2cc(C(F)(F)F)nc3c(C(F)(F)F)cccc23)CC2CC1C2(C)C (stereo not given) | – | – | – | – | 0.014 mg/L (≈ 0.0304 µM) | 0.019 mg/L (≈ 0.0413 µM) | 0.016 mg/L (≈ 0.0347 µM)
Cc1ccc(S(=O)(=O)N(CCN2CCCCC2)CC(O)c2cc(C(F)(F)F)nc3c(C(F)(F)F)cccc23)cc1 (stereo not given) | 0.214 mg/L (≈ 0.363 µM) | 25 nm/s | 0.071 mg/L (≈ 0.12 µM) | – | – | – | –
NCCN(Cc1ccccc1)CC(O)c1cc(C(F)(F)F)nc2c(C(F)(F)F)cccc12 (stereo not given) | 0.289 mg/L (≈ 0.632 µM) | 90.6 nm/s | 0.329 mg/L (≈ 0.719 µM) | – | – | – | –
OC(NC[C@H]1CCCN1)c1cc(C(F)(F)F)nc2c(C(F)(F)F)cccc12 (stereo not given in full) | – | – | – | 0.008 mg/L (≈ 0.0203 µM) | 0.04 mg/L (≈ 0.102 µM) | 0.074 mg/L (≈ 0.188 µM) | 0.054 mg/L (≈ 0.137 µM)
CC(C)(C)NCCNCC(O)c1cc(C(F)(F)F)nc2c(C(F)(F)F)cccc12 (stereo not given) | 0.504 mg/L (≈ 1.19 µM) | 112 nm/s | 0.243 mg/L (≈ 0.574 µM) | – | – | – | –
OC(CNCCNCc1ccncc1)c1cc(C(F)(F)F)nc2c(C(F)(F)F)cccc12 (stereo not given) | > 0.5 mg/L | – | 0.38 mg/L (≈ 0.829 µM) | 0.47 mg/L (≈ 1.03 µM) | 0.38 mg/L (≈ 0.829 µM) | > 0.5 mg/L | > 0.5 mg/L
CN1CCCC(C(NCC(O)c2cc(C(F)(F)F)nc3c(C(F)(F)F)cccc23)C2CCCN(C)C2)C1 (stereo not given) | – | – | – | 0.28 mg/L (≈ 0.526 µM) | 0.746 mg/L (≈ 1.4 µM) | 0.903 mg/L (≈ 1.7 µM) | 0.983 mg/L (≈ 1.85 µM)
OC(NC[C@]12CC[C@@H](C1)NC2)c1cc(C(F)(F)F)nc2c(C(F)(F)F)cccc12 (stereo not given in full) | – | – | – | 0.275 mg/L (≈ 0.656 µM) | 0.075 mg/L (≈ 0.179 µM) | 0.26 mg/L (≈ 0.62 µM) | –
CC(C)N(CCN)CC(O)c1cc(C(F)(F)F)nc2c(C(F)(F)F)cccc12 (stereo not given) | 0.627 mg/L (≈ 1.53 µM) | – | 0.439 mg/L (≈ 1.07 µM) | – | – | – | –
OC(CNC[C@]12CCC[C@H]1CNC2)c1cc(C(F)(F)F)nc2c(C(F)(F)F)cccc12 (stereo not given in full) | – | – | – | 0.852 mg/L (≈ 1.9 µM) | 0.159 mg/L (≈ 0.355 µM) | 0.419 mg/L (≈ 0.936 µM) | 0.429 mg/L (≈ 0.959 µM)
OC(CNCCNC1CCCC1)c1cc(C(F)(F)F)nc2c(C(F)(F)F)cccc12 (stereo not given) | 0.198 mg/L (≈ 0.455 µM) | 30 nm/s | 0.11 mg/L (≈ 0.253 µM) | – | – | – | –
CC(C)NCCNCC(O)c1cc(C(F)(F)F)nc2c(C(F)(F)F)cccc12 (stereo not given) | 0.032 mg/L (≈ 0.0782 µM) | 127 nm/s | 0.012 mg/L (≈ 0.0293 µM) | – | – | – | –
CC1CCN(CC(C)(C)NCC(O)c2cc(C(F)(F)F)nc3c(C(F)(F)F)cccc23)CC1 (stereo not given) | 0.034 mg/L (≈ 0.0712 µM) | 442 nm/s | 0.017 mg/L (≈ 0.0356 µM) | 0.007 mg/L (≈ 0.0147 µM) | 0.024 mg/L (≈ 0.0503 µM) | 0.061 mg/L (≈ 0.128 µM) | 0.066 mg/L (≈ 0.138 µM)
NCCCNCCNCC(O)c1cc(C(F)(F)F)nc2c(C(F)(F)F)cccc12 (stereo not given) | – | – | – | > 0.5 mg/L | 0.38 mg/L (≈ 0.895 µM) | > 0.5 mg/L | > 0.5 mg/L
